According to article PMC11769049, “Phytomedicine Potential of Oroxylum indicum Root and Its Constituents: Targeting Alzheimer’s Disease” (Plants, 2025):

Tests used:
[1] = biological target: T1, Electric eel-type VI-S AChE (Electrophorus electricus, UniProt O42275); assay: AChE inhibition, modified Ellman's method; type: biochemical
T1 construct: purchased
Method: The anti-acetylcholinesterase activity of the extract of O. indicum root and its three constituent compounds was evaluated using a modified Ellman’s method. A microplate-based assay was conducted in triplicate, comprising (i) 25 µL of 1 mM acetylthiocholine iodide, (ii) 50 µL of 0.1 M phosphate buffer (PBS), (iii) 25 µL of the sample, and (iv) 125 µL of 1 mM dithiobisnitrobenzoic acid. Electric eel-type VI-S AChE (0.2 Units/mL) was added. The control group lacked both the sample and enzyme. […] Tacrine served as a reference standard. Enzymatic activity and percent inhibition were assessed. The following equation was used to determine inhibitory activity:Percentage inhibition = [(AE − As)/(AE − AC)] × 100 where AE, AC, and As represent the enzymatic activities of the enzyme, control, and sample, respectively. The AChE inhibitory activity of the samples was expressed as the half-maximal inhibitory concentration (IC50).

Bax = assay: Western blot of Bax in H2O2-exposed SH-SY5Y cells; type: cell-based, Human; settings: 250 μM H2O2, pretreatment with extract (1, 3, 10 µg/mL) or baicalein (1, 3, 10 µM)
Method: (§1) Neuronal cells were pretreated with the extract (1, 3, and 10 µg/mL) or baicalein (1, 3, and 10 µM) for 30 min, followed by induction of oxidative stress with hydrogen peroxide (H2O2). […] NAC (100 µg/mL) was used for the standard substance. For the experiment, SH-SY5Y cells (1 × 10^5 cells/well) were seeded onto a 6-well plate and cultured for 2 days. […] After washing unabsorbed chemicals, the cells were exposed to 250 μM H2O2 for 5 min. Treated cells were lysed with an ice-cold lysis solution. The supernatant was obtained after centrifuging the lysate at 13,500 rpm for 10 min at 4 °C. The Bradford test was used to determine the total protein content. Proteins were separated on a polyvinylidene difluoride membrane using SDS-PAGE. After blocking with BlockAce, the membrane was probed with primary antibodies against BAX, cleaved caspase-3, pTau, and BACE1. Secondary antibodies coupled with horseradish peroxidase were used for detection, followed by enhanced chemiluminescence.

cleaved caspase-3 = assay: Western blot of cleaved caspase-3 in H2O2-exposed SH-SY5Y cells; type: cell-based, Human; settings: 250 μM H2O2, pretreatment with extract (1, 3, 10 µg/mL) or baicalein (1, 3, 10 µM)
Method: as §1

BACE1 = assay: Western blot of BACE1 in H2O2-exposed SH-SY5Y cells; type: cell-based, Human; settings: 250 μM H2O2, pretreatment with extract (1, 3, 10 µg/mL) or baicalein (1, 3, 10 µM)
Method: as §1

[2] = test system: phosphorylated tau protein; assay: Western blot of phosphorylated tau in H2O2-exposed SH-SY5Y cells; type: cell-based, Human; settings: 250 μM H2O2, pretreatment with extract (1, 3, 10 µg/mL) or baicalein (1, 3, 10 µM)
Method: as §1

[3] = DPPH radical scavenging method; settings: for IC50: read-out: IC50 DPPH, mean ± SD (n = 3)
Method: After 30 min incubation period, the absorbance at 520 nm was measured using a microplate reader. The DPPH radical scavenging ability was calculated according to the following equation:Percentage inhibition = [(ADPPH − Asample)/(ADPPH − Acontrol)] × 100 where ADPPH, Asample, and Acontrol are the absorbance values of DPPH solution, sample, and control, respectively.

Aβ1–42 = Aβ1–42 (Homo sapiens, UniProt P05067); assay: Aβ1–42 aggregation inhibition, thioflavin-T (ThT) fluorescence assay
Chain of Aβ1–42 (P05067 672-713 limits assumed): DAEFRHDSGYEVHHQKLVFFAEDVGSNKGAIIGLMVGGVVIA
Method: The aggregation of Aβ1–42 was monitored using a thioflavin-T (ThT) fluorescence assay [58]. […] Following a 48 h incubation period, the mixtures were treated with 175 µL of 5 µM ThT solution prepared in a glycine/NaOH buffer at pH 8.5.

T1 sequence (O42275 24-633): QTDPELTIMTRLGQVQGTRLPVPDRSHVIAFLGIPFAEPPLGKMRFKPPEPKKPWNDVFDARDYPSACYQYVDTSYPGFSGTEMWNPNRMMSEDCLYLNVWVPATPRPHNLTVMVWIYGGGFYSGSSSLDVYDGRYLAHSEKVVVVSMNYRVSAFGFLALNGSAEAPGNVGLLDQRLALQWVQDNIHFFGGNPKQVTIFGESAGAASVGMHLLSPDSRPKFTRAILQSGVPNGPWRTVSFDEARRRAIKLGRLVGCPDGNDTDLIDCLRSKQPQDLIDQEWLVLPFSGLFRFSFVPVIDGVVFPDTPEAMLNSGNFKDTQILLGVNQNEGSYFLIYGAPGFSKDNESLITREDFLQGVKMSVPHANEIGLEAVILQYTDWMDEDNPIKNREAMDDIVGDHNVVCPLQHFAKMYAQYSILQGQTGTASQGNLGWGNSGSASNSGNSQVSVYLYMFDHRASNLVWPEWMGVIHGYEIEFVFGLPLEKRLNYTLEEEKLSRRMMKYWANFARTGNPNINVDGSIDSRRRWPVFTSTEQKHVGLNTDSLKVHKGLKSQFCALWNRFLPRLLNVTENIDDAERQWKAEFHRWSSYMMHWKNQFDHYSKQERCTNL

| Structure (SMILES) | IC50 [1] | expression of pro-apoptotic protein Bax (Bax) | expression of cleaved caspase-3 (cleaved caspase-3) | BACE1 expression (H2O2-induced increase) (BACE1) | levels of phosphorylated tau protein [2] | IC50 [3] | IC50 (Aβ1–42) | DPPH radical scavenging activity ([3]; up to 100 µg/mL) |
| --- | --- | --- | --- | --- | --- | --- | --- | --- |
| O=c1cc(-c2ccccc2)oc2cc(O)c(O)c(O)c12 [Baicalein] | 159 ± 1.15 µM | significantly downregulated | significantly downregulated | effectively mitigated this increase | significantly reduced | 19.08 ± 0.17 µM | – | – |
| O=c1cc(-c2ccccc2)oc2cc(O)cc(O)c12 [Chrysin] | 45.9 ± 1.32 µM | – | – | – | – | 63.3 ± 0.89 µM | 5.86 ± 0.16 µM | – |
| COc1c(O)cc2oc(-c3ccccc3)cc(=O)c2c1O [Oroxylin A] | 86.9 ± 1.85 µM | – | – | – | – | > 100 µM | 8.19 ± 0.28 µM | minimal DPPH radical scavenging activity |
| Cc1c(C)c2c(c(C)c1O)CCC(C)(C(=O)O)O2 (centres unmarked) [Trolox, reference compound] | – | – | – | – | – | 29.8 ± 1.59 µM | – | – |
